The NIST ThermoML archive (doi:10.1016/j.jct.2004.09.018)

Key:
[1] = molar heat capacity at constant pressure; details: 101.33 kPa
[2] = Molar enthalpy of transition or fusion; details: Crystal
[3] = Crystal

O=Cc1ccc([N+](=O)[O-])cc1[N+](=O)[O-] [2,4-dinitrobenzaldehyde]
[1]
Details	molar heat capacity at constant pressure [J/K/mol]
211.47 K, Crystal	56.9
214.01 K, Crystal	58.62
216.52 K, Crystal	60.85
219.02 K, Crystal	60.11
221.6 K, Crystal	60.6
224.29 K, Crystal	61.84
226.79 K, Crystal	62.82
229.3 K, Crystal	62.82
231.81 K, Crystal	64.06
234.37 K, Crystal	65.17
236.8 K, Crystal	66.36
239.16 K, Crystal	67.38
241.63 K, Crystal	68.9
243.96 K, Crystal	70.6
246.15 K, Crystal	72.46
248.51 K, Crystal	72.63
250.87 K, Crystal	73.64
253.13 K, Crystal	75.85
255.45 K, Crystal	78.05
257.75 K, Crystal	79.41
260 K, Crystal	80.42
262.29 K, Crystal	81.1
265.37 K, Crystal	83.47
266.84 K, Crystal	84.66
269.06 K, Crystal	86.52
271.28 K, Crystal	88.55
273.5 K, Crystal	90.93
275.72 K, Crystal	93.3
277.9 K, Crystal	94.99
280.12 K, Crystal	96.35
282.24 K, Crystal	98.88
284.45 K, Crystal	100.75
286.53 K, Crystal	101.94
288.75 K, Crystal	103.12
290.86 K, Crystal	105.15
293.05 K, Crystal	105.66
295.09 K, Crystal	108.2
297.17 K, Crystal	110.92
299.24 K, Crystal	112.78
301.25 K, Crystal	116
303.25 K, Crystal	118.56
305.33 K, Crystal	120.3
307.3 K, Crystal	122.62
309.27 K, Crystal	124.17
311.25 K, Crystal	125.72
313.22 K, Crystal	128.04
315.24 K, Crystal	130.3
317.17 K, Crystal	132.69
319.12 K, Crystal	135.33
321.07 K, Crystal	136.59
322.98 K, Crystal	138.88
324.91 K, Crystal	141.63
326.82 K, Crystal	144.41
328.67 K, Crystal	147.92
330.55 K, Crystal	151.7
332.43 K, Crystal	154.77
334.19 K, Crystal	158.54
335.92 K, Crystal	161.76
337.65 K, Crystal	165.54
339.38 K, Crystal	169.32
341.03 K, Crystal	173.09
348.1 K, Liquid	300.29
349.69 K, Liquid	307.08
351.29 K, Liquid	313.48
352.84 K, Liquid	317.48
354.37 K, Liquid	327.47
355.87 K, Liquid	334.28
357.34 K, Liquid	342.27
358.75 K, Liquid	344.27
360.22 K, Liquid	349.07
361.51 K, Liquid	354.26
362.75 K, Liquid	357.86
363.93 K, Liquid	367.87
365.07 K, Liquid	373.86
366.13 K, Liquid	381.06
367.12 K, Liquid	389.86

Details	Molar enthalpy of transition or fusion [kJ/mol]	Triple point temperature [K]
[2]	21.2	–
[3]	–	344.91
